{"source": "patent US11123320B2", "about": "“Prophylactic or therapeutic agent for hyperaciive bladder” (SBI PHARMACEUTICALS CO., LTD., priority 2017, dated 2021)", "key": {"[1]": {"test_system": "bladder blood flow of SHR rats", "assay": "Bladder blood flow measurement (hydrogen clearance method)", "format": "in vivo, rat", "conditions": "male SHR after 6 weeks oral ALA 10 or 100 mg/kg with sodium ferrous citrate, vs control", "procedure": "After said cystometry, bladder blood flow measurement (hydrogen clearance method) was performed according to the procedures below. (1) A silver chloride plate which is an indifferent electrode is buried under the precordium of each rat. (2) Wire platinum electrodes are incised into the bladder wall (three places in the bladder wall, data is collected 3 times each). (3) Blood flow is measured using UH-METER. Specifically, a hydrogen tank is opened to 0.3 L/min, and 100% hydrogen is directly inhaled with a funnel. Hydrogen is given until peaked, and hydrogen clearance curve is measured with the PowerLab system. The timepoint when the hydrogen clearance curve begins to drop is set at 0 second, and recording was performed for about 180 seconds. (4) The blood flow amount was calculated from the regression curve. * Half-life (T½) is determined from the regression curve Y=B−AX."}, "NGF": {"test_system": "NGF", "assay": "NGF ELISA in rat bladder tissue", "format": "in vivo", "conditions": "male SHR, oral ALA with sodium ferrous citrate as in Example 1, vs control group", "description": "ALA administration to a subject and the change in the amount of NGF expression was investigated. Since micturition reflex is enhanced when NGF increases in the bladder thus resulting in overactive bladder, NGF is employed as a lower urinary tract dysfunction marker.\n(§1) Preparation of the experimental and control groups was carried out with the method and conditions similar to the method described in Example 1.\n(§2) The bladder tissue of experimental and control groups were processed with the procedure below, and used as samples.\n1. Wash 100 mg of tissue with 1×PBS.\n2. Homogenize with 1 ml of 1×PBS.\n(§3) 3. Store overnight at −20° C.\n(§4) 4. Carry out freeze-thawing to destroy cell membrane, and centrifuge at 5000 G for 5 min at 4° C.\n(§5) 5. Dispense and store at −20° C. or −80° C.\n(§6) 6. After thawing, centrifuge again and employ for assay.\nELISA assay was performed with Rat NGF ELISA kit (CUSABIO CSB-E24685r) according to the protocol provided by the manufacturer."}, "Nrf2": {"test_system": "Nrf2", "assay": "Nrf2 ELISA in rat bladder tissue", "format": "in vivo", "conditions": "male SHR, oral ALA with sodium ferrous citrate as in Example 1, vs control group", "description": "ALA administration to a subject and the change in the amount of Nrf2 expression was investigated. Nrf2 is one of transcription factors that regulate the expression of antioxidant enzymes or detoxication metabolism enzymes to control oxidative stress, and is employed as an oxidative stress marker.\nas §1, §2\n1. Wash excess blood with PBS.\n3. Place 600 μl of PBS on ice in a biomasher to finely mince tissue.\n4. Perform ultrasonic wave treatment or freeze-thawing (−20° C./room temperature) 3 times.\n5. Centrifuge at 5000 G for 5 minutes.\n6. Move the supernatant to a new tube (measure protein concentration).\nELISA assay was performed with Rat NFE2L2/NRF2 ELISA kit (LSBio LS-F12145) according to the protocol provided by the manufacturer."}, "MDA (Malondialdehyde)": {"test_system": "MDA (Malondialdehyde)", "assay": "MDA assay in rat bladder tissue", "format": "in vivo", "conditions": "male SHR, oral ALA with sodium ferrous citrate as in Example 1; vs control group", "description": "ALA administration to a subject and the change in the amount of MDA expression was investigated. MDA is one of lipid peroxidative degradation products, and is known as a major marker of lipid peroxidation.\nas §1, §2\n1. Subject to biomasher with 400 μl of cold assay buffer.\n2. Centrifuge at 15000 rpm for 5 min at 4° C. After centrifugation, add 300 μl of buffer to the supernatant and store on ice.\n3. Correct with protein concentration.\nELISA assay was performed with Malondialdehyde Assay kit (NWK-MDA01) according to the protocol provided by the manufacturer."}, "VEGF": {"test_system": "VEGF", "assay": "VEGF ELISA in rat bladder tissue", "format": "in vivo", "conditions": "male SHR, oral ALA with sodium ferrous citrate as in Example 1, vs control group", "description": "ALA administration to a subject and the change in the amount of VEGF expression was investigated. VEGF is a vascular endothelial growth factor, and is used as a marker of bladder vascular endothelial dysfunction.\nas §1, §2\n1. Wash 100 mg of tissue with 1×[…].\n2. Homogenize with 500 μl of 1×PBS.\nas §3, §4, §5, §6\nELISA assay was performed with Rat VEGF ELISA kit (CUSABIO CSB-E04757r) according to the protocol provided by the manufacturer."}, "[2]": {"test_system": "detrusor muscle / bladder of SHR rats", "assay": "Cystometry (overactive status of the detrusor muscle)", "format": "in vivo, rat", "conditions": "18 weeks old male SHR under urethane anesthesia, after 6 weeks oral ALA 10 or 100 mg/kg with sodium ferrous citrate; vs group without ALA", "procedure": "Note that cystometry verifies the overactive status of the detrusor muscle, and is established as a method for examining overactive bladder. (1) 18 weeks old male SHR/Hos rats and Wistar/ST rat are subjected to general anesthesia by urethane (1.0 g/kg, i.p.). (2) Each rat is laid down and the extremities are fixed with packaging tape. Laparotomy is then performed, and the bladder is pressed to allow urination. Absorbent cotton with saline is placed on top to prevent drying and left for 30 minutes. (3) A catheter for cystometry is inserted into the bladder of each rat. Here, the catheter is joined to a three-way stopcock, and one end is connected to a syringe pump to continuously infuse saline into the bladder at a constant speed (12 ml/hr). The other end is connected to a pressure transducer to monitor and amplify with a pressure amplifier, and incorporated into a personal computer via Powerlab system for recording. (4) Saline is then infused and left for about 30 minutes until stable. (5) Watch the wave form to collect single urine into a 1.5 ml tube, and the weight of urine is measured. (6) Residual urine of each rat is collected and the amount is measured. (7) Peaks at similar interval and height are consecutively taken 6 times (about 1 hour)."}, "[3]": {"test_system": "overactive bladder model rats (SHR)", "assay": "Urination kinetics measurement with a metabolic cage", "format": "in vivo, rat", "conditions": "male SHR, vs saline control", "description": "Twelve weeks old male SHR (spontaneously hypertension rata) were employed as experimental rats, and the experimental groups were divided into groups I-III by ALA administration conditions below. For experimental group II, ALA and sodium ferrous citrate were orally administered on experiment start day. The dosage of ALA was set at 10 mg/kg of body weight and sodium ferrous citrate was set at 15.7 mg/kg of body weight. On the other hand, for experimental group III, ALA was set at 100 mg/kg of body weight and sodium ferrous citrate was set at 157 mg/kg of body weight. Note that for control group I, saline only at an amount equal to ALA was administered instead of ALA and sodium ferrous citrate.\nFor control group I, saline was orally administered every day from experiment start day (12 weeks old) to week 6 (18 weeks old).\nFor experimental groups II and III, ALA and sodium ferrous citrate was orally administered every day from experiment start day (12 weeks old) to week 6 (18 weeks old).\nFor each experimental group, urination kinetics measurement with a metabolic cage was performed. Specifically, measurements were performed at 12 weeks old (before ALA administration) and at 18 weeks old (after ALA administration) to measure single urination amount, 24-hour urination amount, and water drinking amount. Here, the method based on Yono et al., Life Sci. 2007 Jun. 27; 81(3):218-222 (non-anesthetized, unrestrained, and day-and-night continuous measurement method of mouse urination function) was adopted as the measurement method with a metabolic cage. Note that before measurement of urination kinetics, body weight, blood pressure, and heart rate were measured as a caution in addition to the urination amount and water drinking amount. Moreover, when measuring urination kinetics, total number of urination was also measured."}, "[4]": {"conditions": "ALA 10 or 100 mg/kg with sodium ferrous citrate orally every day for 6 weeks"}}}
{"smiles": "NCC(=O)CCC(=O)O", "note": "[ALA, 5-aminolevulinic acid]", "values": [{"measurement": "bladder blood flow amount", "setting": "[1]", "value": "tendency of bladder blood flow to increase ALA dosage-dependently"}, {"measurement": "amount of NGF expression in bladder tissue", "setting": "NGF", "value": "significantly reduced"}, {"measurement": "amount of Nrf2 expression in bladder tissue", "setting": "Nrf2", "value": "significantly reduced"}, {"measurement": "amount of MDA expression in bladder tissue", "setting": "MDA (Malondialdehyde)", "value": "significantly reduced"}, {"measurement": "amount of VEGF expression in bladder tissue", "setting": "VEGF", "value": "significantly reduced"}, {"measurement": "urination interval (cystometry)", "setting": "[2]", "value": "extension of urination interval"}, {"measurement": "increase in single urination amount compared to the control group", "setting": "[3]; ALA 10 or 100 mg/kg with sodium ferrous citrate 15.7 or 157 mg/kg orally every day for 6 weeks, measured at 18 weeks old", "value": "approximately 30%"}, {"measurement": "24-hour urination amount compared to the control group", "setting": "[3]; [4]", "value": "increase in 24-hour urination amount"}, {"measurement": "24-hour water drinking amount", "setting": "[3]; [4]", "value": "increase in water drinking amount"}]}
